26 compounds from US11084821B2 (MISSION THERAPEUTICS LIMITED, priority 2016, dated 2021) can be followed below.

Sequence of USP30 (Q70CQ3 57-517): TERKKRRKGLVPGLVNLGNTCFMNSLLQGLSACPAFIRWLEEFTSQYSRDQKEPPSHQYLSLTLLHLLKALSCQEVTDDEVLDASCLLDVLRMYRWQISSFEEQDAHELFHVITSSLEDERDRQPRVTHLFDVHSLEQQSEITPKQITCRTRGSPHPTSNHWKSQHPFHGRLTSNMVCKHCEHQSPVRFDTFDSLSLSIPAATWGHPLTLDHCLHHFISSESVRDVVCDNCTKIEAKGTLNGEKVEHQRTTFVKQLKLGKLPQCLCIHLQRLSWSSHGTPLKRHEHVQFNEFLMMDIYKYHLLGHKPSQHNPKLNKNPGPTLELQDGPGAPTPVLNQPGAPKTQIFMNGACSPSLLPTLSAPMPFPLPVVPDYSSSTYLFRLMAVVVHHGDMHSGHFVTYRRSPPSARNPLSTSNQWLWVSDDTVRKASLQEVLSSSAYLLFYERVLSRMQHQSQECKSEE

The target in this assay is USP30 (Homo sapiens (Human), UniProt Q70CQ3). As to the kind of experiment: USP30 Biochemical IC50 Assay. Conditions: fluorescence polarisation, TAMRA labelled peptide linked to ubiquitin; enzyme and compound incubated 30 min; read after 2 h at room temperature; read-out: IC50 range. How it is done:
USP30 Biochemical IC50 Assay
Dilution plates were prepared at 21 times the final concentration (2100 μM for a final concentration of 100 μM) in 50% DMSO in a 96-well polypropylene V-bottom plate (Greiner #651201). A typical 8-point dilution series would be 100, 30, 10, 3, 1, 0.3, 0.1, 0.03 μM final. Reactions were performed in duplicate in black 384 well plates (small volume, Greiner 784076) in a final reaction volume of 21 μl. Either 1 μl of 50% DMSO or diluted compound was added to the plate. USP30 was diluted in reaction buffer (40 mM Tris, pH 7.5, 0.005% Tween 20, 0.5 mg/ml BSA, 5 mM beta-mercaptoethanol) to the equivalent of 0.05 μl/well and 10 μl of diluted USP30 was added to the compound. Enzyme and compound were incubated for 30 min at room temp. Reactions were initiated by the addition of 50 nM of TAMRA labelled peptide linked to ubiquitin via an iso-peptide bond as fluorescence polarisation substrate. Reactions were read immediately after addition of substrate and following a 2 h incubation at room temperature. Readings were performed on a Pherastar Plus (BMG Labtech). Excitation 540 nm; Emission 590 nm.
For orientation: IC50 means the concentration that inhibits the measured activity by half. Take `N#Cc1cccc(-c2cccnc2N2CCO[C@H]3CN(C#N)C[C@H]32)c1` (racemic) [Example 23, rac-(4aR,7aS)-4-(5-(3-Cyanophenyl)pyridin-6-yl)hexahydropyrrolo[3,4-b][1,4]oxazine-6(2H)-carbonitrile]: the IC50 was 1 to 10 nM.

In the case of `N#Cc1cccc(-c2cnc(N3CCO[C@@H]4CN(C#N)C[C@@H]43)nc2)c1` (racemic) [Example 24, rac-(4aR,7aS)-4-(5-(3-Cyanophenyl)pyrimidin-2-yl)hexahydropyrrolo[3,4-b][1,4]oxazine-6(2H)-carbonitrile], the IC50 is 1 to 10 nM.

Take `N#Cc1cccc(-c2cnc(N3CCO[C@@H]4CN(C#N)C[C@@H]43)cn2)c1` (racemic) [Example 25, rac-(4aR,7aS)-4-(5-(3-Cyanophenyl)pyrazin-2-yl)hexahydropyrrolo[3,4-b][1,4]oxazine-6(2H)-carbonitrile]: the IC50 was 1 to 10 nM.

With `N#Cc1ccnc(-c2ccc(N3CCO[C@@H]4CN(C#N)C[C@@H]43)nc2)c1` (racemic) [Example 26, rac-(4aR,7aS)-4-(4-Cyano-[2,3′-bipyridin]-6′-yl)hexahydropyrrolo[3,4-b][1,4]oxazine-6(2H)-carbonitrile], the IC50 is 1 to 10 nM.

In the case of `N#Cc1cccc(-c2ccc(N3CCO[C@@H]4CN(C#N)C[C@@H]43)nc2)n1` (racemic) [Example 27], the IC50 is 10 to 100 nM.

For the compound `N#CN1C[C@H]2OCCN(c3ccc(-c4ccccc4)nn3)[C@H]2C1` (relative stereo) [Example 2, cis-4-(6-Phenylpyridazin-3-yl)hexahydropyrrolo[3,4-b][1,4]oxazine-6(2H)-carbonitrile], the IC50 fell in the range of 100 to 1000 nM.

As to `N#CN1C[C@@H]2OCCN(c3nc4ccc(F)cc4s3)[C@@H]2C1` (relative stereo) [Example 3, cis-4-(6-Fluorobenzo[d]thiazol-2-yl)hexahydropyrrolo[3,4-b][1,4]oxazine-6(2H)-carbonitrile], the IC50 lay in the range of 1000 to 10000 nM.

For the compound `N#CN1C[C@@H]2OCCN(c3cc(-c4ccccc4)ccn3)[C@@H]2C1` (relative stereo) [Example 4, cis-4-(4-Phenylpyridin-2-yl)hexahydropyrrolo[3,4-b][1,4]oxazine-6(2H)-carbonitrile], the IC50 was in the range of 1000 to 10000 nM.

`N#CN1C[C@@H]2OCCN(c3ccc(-c4ccccc4)cn3)[C@@H]2C1` (relative stereo) [Example 5, cis-4-(5-Phenylpyridin-2-yl)hexahydropyrrolo[3,4-b][1,4]oxazine-6(2H)-carbonitrile]: the IC50 lay within 100 to 1000 nM.

Consider `N#CN1C[C@@H]2OCCN(c3cccc(-c4ccccc4)n3)[C@@H]2C1` (relative stereo) [Example 6, cis-4-(6-Phenylpyridin-2-yl)hexahydropyrrolo[3,4-b][1,4]oxazine-6(2H)-carbonitrile], for which the IC50 was 100 to 1000 nM.

Consider `N#CN1C[C@@H]2OCCN(c3nccc(-c4ccccc4)n3)[C@@H]2C1` (relative stereo) [Example 7, cis-4-(4-Phenylpyrimidin-2-yl)hexahydropyrrolo[3,4-b][1,4]oxazine-6(2H)-carbonitrile], for which the IC50 lay within 100 to 1000 nM.

For the compound `N#CN1C[C@H]2CCN(c3ncc(-c4ccccc4)s3)[C@H]2C1` (relative stereo) [Example 8, cis-1-(5-Phenylthiazol-2-yl)hexahydropyrrolo[3,4-b]pyrrole-5(1H)-carbonitrile], the IC50 is 100 to 1000 nM.

As for `N#CN1C[C@H]2OCCN(c3ncc(-c4ccccc4)s3)[C@H]2C1` (relative stereo) [Example 9, cis-4-(5-Phenylthiazol-2-yl)hexahydropyrrolo[3,4-b][1,4]oxazine-6(2H)-carbonitrile], the IC50 fell in the range of 100 to 1000 nM.

Regarding `N#CN1C[C@@H]2OCCN(c3ncc(-c4ccccc4)s3)[C@H]2C1` (relative stereo) [Example 10, trans-4-(5-Phenylthiazol-2-yl)hexahydropyrrolo[3,4-b][1,4]oxazine-6(2H)-carbonitrile], the 50% inhibitory concentration (IC50) is 100 to 1000 nM.

For `N#Cc1cc(-c2ccc(N3CCO[C@H]4CN(C#N)C[C@H]43)nc2)ccn1` (single isomer, unassigned) [Example 19, cis-4-(2′-Cyano-[3,4′-bipyridin]-6-yl)hexahydropyrrolo[3,4-b][1,4]oxazine-6(2H)-carbonitrile], the IC50 fell in the range of 1 to 10 nM.

In the case of `N#Cc1cc(-c2ccc(N3CCO[C@H]4CN(C#N)C[C@H]43)nc2)ccn1` (single isomer, unassigned) [Example 20, cis-4-(2′-Cyano-[3,4′-bipyridin]-6-yl)hexahydropyrrolo[3,4-b][1,4]oxazine-6(2H)-carbonitrile], the IC50 was in the range of 10 to 100 nM.

Regarding `N#Cc1cc(-c2ccc(N3CCO[C@H]4CN(C#N)C[C@H]43)nn2)ccn1` (single isomer, unassigned) [Example 21, cis-4-(6-(2-Cyanopyridin-4-yl)pyridazin-3-yl)hexahydropyrrolo[3,4-b][1,4]oxazine-6(2H)-carbonitrile], the IC50 fell in the range of 100 to 1000 nM.

Take `N#Cc1cc(-c2ccc(N3CCO[C@H]4CN(C#N)C[C@H]43)nn2)ccn1` (single isomer, unassigned) [Example 22, cis-4-(6-(2-Cyanopyridin-4-yl)pyridazin-3-yl)hexahydropyrrolo[3,4-b][1,4]oxazine-6(2H)-carbonitrile]: the IC50 is 10 to 100 nM.

`N#CN1CC2CCN(c3ccccc3)C2C1` (centres unmarked) [Example 1, 1-Phenylhexahydropyrrolo[3,4-b]pyrrole-5(1H)-carbonitrile]: the IC50 lay within 1000 to 10000 nM.

As for `N#CN1CC2CCCN(c3ncc(-c4ccccc4)s3)C2C1` (centres unmarked) [Example 11, 1-(5-Phenylthiazol-2-yl)octahydro-6H-pyrrolo[3,4-b]pyridine-6-carbonitrile], the IC50 lay in the range of 1000 to 10000 nM.

For the compound `CN(c1ncc(-c2ccccc2)s1)C1CCN(C#N)C1` (centres unmarked) [Example 13, 3-(Methyl(5-phenylthiazol-2-yl)amino)pyrrolidine-1-carbonitrile], the IC50 was in the range of 1000 to 10000 nM.

Turning to `CN(c1ccc(-c2ccccc2)cn1)C1CCN(C#N)C1` (centres unmarked) [Example 14, 3-(Methyl(5-phenylpyridin-2-yl)amino)pyrrolidine-1-carbonitrile], the IC50 fell in the range of 1000 to 10000 nM.

As to `N#CN1C[C@H]2CCN(c3nc4ccc(OC(F)(F)F)cc4[nH]3)[C@H]2C1` [Example 15, (3aR,6aR)-1-(6-(Trifluoromethoxy)-1H-benzo[d]imidazol-2-yl)hexahydropyrrolo[3,4-b]pyrrole-5(1H)-carbonitrile], the IC50 is 10 to 100 nM.

With `N#Cc1ccc2nc(N3CC[C@@H]4CN(C#N)C[C@@H]43)[nH]c2c1` [Example 16, 2-((3aR,6aR)-5-Cyanohexahydropyrrolo[3,4-b]pyrrol-1(2H)-yl)-1H-benzo[d]imidazole-6-carbonitrile], the IC50 is 100 to 1000 nM.

For `COc1ccc2nc(N3CC[C@@H]4CN(C#N)C[C@@H]43)[nH]c2c1` [Example 17, (3aR,6aR)-1-(6-Methoxy-1H-benzo[d]imidazol-2-yl)hexahydropyrrolo[3,4-b]pyrrole-5(1H)-carbonitrile], the IC50 is 100 to 1000 nM.

On to `CN(c1nc2ccc(C(F)(F)F)cc2[nH]1)[C@@H]1CCN(C#N)C1` [Example 18, (R)-3-(Methyl(6-(trifluoromethyl)-1H-benzo[d]imidazol-2-yl)amino)pyrrolidine-1-carbonitrile], for which the IC50 was in the range of 100 to 1000 nM.
